# Results from ChEMBL document CHEMBL5465560, “Selectivity Literature for EUbOPEN Chemogenomic Library” (2024).
# Columns and labels:
# [1] = molecular target: Tyrosine-protein kinase JAK1 (Homo sapiens, UniProt P23458); assay: Selectivity interaction (SelectScreen Kinase Profiling (Thermo Fisher Scientific)) EUB0001558a JAK1; conditions: at 1 µM
# [2] = molecular target: T1, cGMP-dependent protein kinase 1 (Homo sapiens) (UniProt Q13976); assay: Selectivity interaction (KinomeScan (DiscoverX)) EUB0000595a PRKG1; conditions: at 10 µM
# T1 sequence (whole entry): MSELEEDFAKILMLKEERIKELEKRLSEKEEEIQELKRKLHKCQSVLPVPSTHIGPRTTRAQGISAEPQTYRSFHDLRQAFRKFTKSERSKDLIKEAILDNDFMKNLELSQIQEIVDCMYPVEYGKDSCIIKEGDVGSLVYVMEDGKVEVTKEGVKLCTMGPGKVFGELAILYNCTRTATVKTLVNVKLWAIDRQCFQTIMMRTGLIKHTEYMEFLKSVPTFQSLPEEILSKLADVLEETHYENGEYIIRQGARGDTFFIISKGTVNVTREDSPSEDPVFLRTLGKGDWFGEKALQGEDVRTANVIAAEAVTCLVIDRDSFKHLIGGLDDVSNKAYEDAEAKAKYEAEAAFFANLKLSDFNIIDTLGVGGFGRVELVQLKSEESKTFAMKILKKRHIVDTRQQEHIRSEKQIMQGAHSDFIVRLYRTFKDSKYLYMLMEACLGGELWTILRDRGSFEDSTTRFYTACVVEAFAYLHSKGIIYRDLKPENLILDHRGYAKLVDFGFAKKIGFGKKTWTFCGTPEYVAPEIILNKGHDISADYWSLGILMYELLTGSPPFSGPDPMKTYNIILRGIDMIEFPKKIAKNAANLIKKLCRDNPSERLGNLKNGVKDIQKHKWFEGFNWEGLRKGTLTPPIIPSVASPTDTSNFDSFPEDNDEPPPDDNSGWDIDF
# [3] = molecular target: T2, Calcium/calmodulin-dependent protein kinase type IV (Homo sapiens) (UniProt Q16566); assay: Selectivity interaction (KinomeScan (DiscoverX)) EUB0000092b CAMK4; conditions: at 10 µM
# T2 sequence (whole entry): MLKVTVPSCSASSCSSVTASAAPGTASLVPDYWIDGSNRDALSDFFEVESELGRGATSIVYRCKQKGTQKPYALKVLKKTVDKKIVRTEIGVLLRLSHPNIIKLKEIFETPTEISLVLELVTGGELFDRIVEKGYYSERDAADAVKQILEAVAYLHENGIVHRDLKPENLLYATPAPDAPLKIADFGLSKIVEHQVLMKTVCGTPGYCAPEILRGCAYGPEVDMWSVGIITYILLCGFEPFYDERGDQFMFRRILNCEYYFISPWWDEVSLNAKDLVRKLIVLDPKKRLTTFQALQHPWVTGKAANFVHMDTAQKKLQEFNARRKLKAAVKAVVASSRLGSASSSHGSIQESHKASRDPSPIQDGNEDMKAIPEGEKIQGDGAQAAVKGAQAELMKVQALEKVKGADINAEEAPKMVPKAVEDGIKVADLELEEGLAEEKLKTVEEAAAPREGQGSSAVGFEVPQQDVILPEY
# [4] = molecular target: T3, Ephrin type-B receptor 2 (Homo sapiens) (UniProt P29323); assay: Selectivity interaction (KinomeScan (DiscoverX)) EUB0000607a EPHB2; conditions: at 10 µM
# T3 sequence (whole entry): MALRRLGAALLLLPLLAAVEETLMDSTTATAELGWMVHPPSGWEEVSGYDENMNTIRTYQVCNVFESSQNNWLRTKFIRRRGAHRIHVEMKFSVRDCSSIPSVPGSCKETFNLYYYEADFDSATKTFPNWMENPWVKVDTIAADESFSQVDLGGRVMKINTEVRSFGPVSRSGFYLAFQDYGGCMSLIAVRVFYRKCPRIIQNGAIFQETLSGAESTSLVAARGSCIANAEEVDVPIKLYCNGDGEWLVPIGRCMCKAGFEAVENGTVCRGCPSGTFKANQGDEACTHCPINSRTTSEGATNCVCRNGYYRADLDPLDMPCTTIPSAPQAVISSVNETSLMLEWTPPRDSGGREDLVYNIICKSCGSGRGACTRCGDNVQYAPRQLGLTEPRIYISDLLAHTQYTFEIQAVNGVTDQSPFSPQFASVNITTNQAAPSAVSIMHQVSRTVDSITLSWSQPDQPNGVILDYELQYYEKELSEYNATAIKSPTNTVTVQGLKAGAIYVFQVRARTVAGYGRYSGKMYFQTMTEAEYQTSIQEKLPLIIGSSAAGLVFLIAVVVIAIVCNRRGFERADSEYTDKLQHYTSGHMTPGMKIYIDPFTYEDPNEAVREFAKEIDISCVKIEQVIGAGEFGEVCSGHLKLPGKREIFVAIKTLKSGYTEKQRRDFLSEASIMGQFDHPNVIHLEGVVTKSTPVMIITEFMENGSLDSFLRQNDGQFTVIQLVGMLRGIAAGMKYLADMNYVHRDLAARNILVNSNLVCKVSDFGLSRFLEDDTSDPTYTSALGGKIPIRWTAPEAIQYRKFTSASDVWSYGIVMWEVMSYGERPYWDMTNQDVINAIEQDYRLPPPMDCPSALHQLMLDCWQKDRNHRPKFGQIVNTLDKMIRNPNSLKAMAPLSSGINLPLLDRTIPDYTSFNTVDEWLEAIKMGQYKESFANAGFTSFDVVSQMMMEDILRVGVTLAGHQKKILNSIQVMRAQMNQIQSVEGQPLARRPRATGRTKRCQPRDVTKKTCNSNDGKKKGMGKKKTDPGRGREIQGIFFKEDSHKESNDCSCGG
# Tyrosine-protein kinase JAK1, sequence (P23458 whole entry): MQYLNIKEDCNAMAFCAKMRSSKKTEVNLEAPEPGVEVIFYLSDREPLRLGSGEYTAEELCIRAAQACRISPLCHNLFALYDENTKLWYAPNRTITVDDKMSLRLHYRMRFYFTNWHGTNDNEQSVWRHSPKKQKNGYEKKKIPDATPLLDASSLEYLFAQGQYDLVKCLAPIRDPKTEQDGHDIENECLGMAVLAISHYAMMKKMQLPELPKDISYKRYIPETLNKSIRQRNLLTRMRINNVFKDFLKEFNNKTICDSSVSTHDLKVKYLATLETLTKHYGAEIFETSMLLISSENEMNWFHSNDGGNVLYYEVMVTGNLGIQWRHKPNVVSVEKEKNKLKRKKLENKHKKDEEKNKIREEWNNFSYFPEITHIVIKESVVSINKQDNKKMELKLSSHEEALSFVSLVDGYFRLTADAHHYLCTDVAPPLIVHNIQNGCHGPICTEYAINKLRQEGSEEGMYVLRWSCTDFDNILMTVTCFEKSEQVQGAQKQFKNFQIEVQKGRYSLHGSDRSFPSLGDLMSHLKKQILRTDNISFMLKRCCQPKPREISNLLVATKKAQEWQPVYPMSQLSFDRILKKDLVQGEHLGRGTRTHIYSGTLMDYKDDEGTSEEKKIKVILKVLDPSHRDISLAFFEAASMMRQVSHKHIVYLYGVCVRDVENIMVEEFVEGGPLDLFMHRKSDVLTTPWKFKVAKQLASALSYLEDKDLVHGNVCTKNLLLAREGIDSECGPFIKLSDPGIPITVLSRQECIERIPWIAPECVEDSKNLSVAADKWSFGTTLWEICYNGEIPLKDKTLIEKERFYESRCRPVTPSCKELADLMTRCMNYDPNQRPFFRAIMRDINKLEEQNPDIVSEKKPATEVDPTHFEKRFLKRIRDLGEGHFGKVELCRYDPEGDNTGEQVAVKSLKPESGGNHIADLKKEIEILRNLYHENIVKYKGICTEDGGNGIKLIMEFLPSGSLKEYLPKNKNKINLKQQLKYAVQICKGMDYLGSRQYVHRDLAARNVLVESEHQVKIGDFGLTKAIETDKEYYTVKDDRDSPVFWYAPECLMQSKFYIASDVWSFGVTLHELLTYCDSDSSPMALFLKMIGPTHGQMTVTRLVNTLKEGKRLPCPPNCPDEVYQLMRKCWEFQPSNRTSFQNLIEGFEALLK
smiles,measurement,setting,value
CC(C)(O)[C@H](F)CN1Cc2cc(NC(=O)c3cnn4cccnc34)c(N3CCOCC3)cc2C1=O,% of inhibition,[1],83.5%
COCC(=O)NC/C=C/c1ccc2ncnc(Nc3ccc(Oc4ccc(C)nc4)c(C)c3)c2c1 [CP-724714],% of control,[2],100%
CCC(=O)N1CCN(c2ccc(-n3c(=O)ccc4cnc5ccc(-c6cnc7ccccc7c6)cc5c43)cc2C(F)(F)F)CC1,% of control,[3],90%
CNC(=O)Nc1ccc(-c2nc(N3CC4CCC(C3)O4)c3cnn(C4CCC5(CC4)OCCO5)c3n2)cc1,% of control,[4],78%
